Laboratory results reported in US11993640B2, “Treating inflammatory lung disease” (United States Government as represented by the Department …, priority 2019, dated 2024).
pIC50: −log10 of the molar value. Like-named read-outs stand apart in the source and are kept apart here. Non-standard residues stand in square brackets, D forms with d. Residues, ends and D or L forms follow the SMILES beside them. *: point of attachment. Phenylacetyl(2,3,4,5,6-F5) = O=C(Cc1c(F)c(F)c(F)c(F)c1F)*; Phe(F5) = N[C@@H](Cc1c(F)c(F)c(F)c(F)c1F)C(=O)O; hArg = N=C(N)NCCCC[C@H](N)C(=O)O; 12Ado = NCCCCCCCCCCCC(=O)O; Nle = CCCC[C@H](N)C(=O)O; Orn = NCCC[C@H](N)C(=O)O; Abu = CC[C@H](N)C(=O)O; PhAc = O=C(Cc1ccccc1)*

What was measured:
PANC-1 cells = assay: In vitro cell viability, pancreatic cancer PANC-1; format: cell-based, human; conditions: 5 μM, 72 h; relative to MIA602 = 1; Table 3A
Procedure: (§1) The inhibitory effects of the various synthesized GHRH antagonists were tested in cell proliferation assays in various human cancer cell lines including stomach cancer (KATOIII, N87), colon cancer (HT-29), urothelial cancer (J82, RT4), pancreatic cancer (PANC-1, CFPAC-1), prostatic cancer (PC3), breast cancer (MX-1, HCC1806), ovarian cancer (SK-OV-3, OVCAR-3) and lung cancer (HCC827, H460).
(§2) Cell culture. Human cancer cell lines including pancreatic (PANC-1 and CFPAC-1), lung (HCC827 and H460), stomach (NCI-N87 and KATOIII), urothelial (J82, RT4), prostatic (PC3), breast (MX-1 and HCC 1806), colorectal (HT-29), and ovarian (SK-OV-3 and OVCAR-3) were obtained from the American Type Culture Collection (ATCC) and cultured at 37° C. in a humidified 95% air/5% CO2 atmosphere in the medium recommended by ATCC.
(§3) In vitro cell viability. Cell viability was analyzed as follows: cancer cells including pancreatic (PANC-1 and CFPAC-1), lung (HCC827 and H460), stomach (NCI-N87 and KATOIII), urothelial (J82, RT4), prostatic (PC3) and breast (MX-1 and HCC 1806), colorectal (HT-29) and ovarian (SK-OV-3 and OVCAR-3) were grown on 96 well plates to ˜60% confluence, the cells were starved for 24 h in culture medium containing 0.5% FBS. Cells were then treated with GHRH antagonists MIA602 AVR compounds at concentrations of 1, 2.5 or 5 μM, or vehicle (0.1% DMSO) in quintuplicates for 72 hours. The medium was replaced every 48 hours. Cell viability was measured using CellTiter 96 aqueous one solution kit (Promega). Inhibitory effects of tested AVR compounds in comparison to that of MIA602 are presented as inhibitory potency.
(§4) Inhibitory effects of selected AVR compounds in comparison to that of MIA602 are presented as inhibitory potency (e.g., percentage of inhibition). […] The cell lines tested including lung cancer HCC827 (FIG. 2A), pancreatic cancer CFPAC-1 (FIG. 2B), stomach cancer N87 (FIG. 2C), colon cancer HT-29 (FIG. 2D), breast cancers MX-1 and HCC1806 (FIGS. 2E, F). Based on the results of cell proliferation assay after cancer cells were treated with antagonist at concentration of 5 μM for 72H, the relative inhibitory potency of AVR antagonists in comparison to MIA-602 is summarized in Table 3 A and B. Over 60 AVR compounds were tested in 12 cancer cell lines.

HCC827 cells = assay: In vitro cell viability, lung cancer HCC827; format: cell-based, human; conditions: 5 μM, 72 h; for Relative inhibitory potency, Lung HCC827: relative to MIA602 = 1, Table 3A
How it was run: (§5)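 Cells grown to ~60% confluence and serum-starved 24 h in 0.5% FBS, then exposed to antagonists at 5 μM (some at 2 μM) for 72 h in quintuplicate, with medium replaced every 48 h. Viability read by CellTiter 96 AQueous One (MTS). Values are inhibition relative to MIA602.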

[1] = target: T1, membrane GHRH-receptors on human anterior pituitary cells (Homo sapiens, UniProt Q02643); assay: Competitive receptor binding, displacement of 125I-[His1,Nle27]-hGH-RH(1-32)NH2 from human pituitary membranes
T1 construct: Human pituitary was purchased from the National Hormone and Peptide Program; tissue National Hormone and Peptide Program; host or cells: human pituitary membrane fractions
T1 sequence (Q02643 23-423): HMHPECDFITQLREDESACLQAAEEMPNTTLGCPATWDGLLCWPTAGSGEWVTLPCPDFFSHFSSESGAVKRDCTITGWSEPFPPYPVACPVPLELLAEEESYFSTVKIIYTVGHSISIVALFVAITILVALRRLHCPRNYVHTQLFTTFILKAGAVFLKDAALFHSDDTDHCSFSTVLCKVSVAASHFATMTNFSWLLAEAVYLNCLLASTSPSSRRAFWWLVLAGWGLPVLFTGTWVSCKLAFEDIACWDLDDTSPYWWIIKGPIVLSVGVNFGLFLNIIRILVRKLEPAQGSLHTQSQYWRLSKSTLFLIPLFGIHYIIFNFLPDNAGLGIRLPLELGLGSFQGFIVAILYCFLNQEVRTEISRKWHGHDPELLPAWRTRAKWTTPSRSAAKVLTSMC
How it was run: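 Membrane fractions from human pituitary; peptides displace 125I-[His1,Nle27]-hGH-RH(1-32)NH2. IC50 is the dose giving 50% inhibition of specific binding, from duplicate tubes. Relative affinity is the ratio of test IC50 to hGH-RH(1-29)NH2 IC50.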

NCI-N87 cells = assay: In vitro cell viability (CellTiter 96), stomach cancer N87; format: cell-based, human; conditions: 5 μM, 72 h; for Relative inhibitory potency, Stomach N87: relative to MIA602 = 1, Table 3A
Procedure: as §1, §2, §3, §4
Based on the results of cell proliferation assay after cancer cells were treated with antagonist at concentration of 5 µM for 72H, * at concentration of 2 µM for 72 H.

CFPAC-1 cells = assay: In vitro cell viability, pancreatic cancer CFPAC-1; format: cell-based, human; conditions: 5 μM, 72 h; for Relative inhibitory potency, Pancreatic CFPAC-1: relative to MIA602 = 1, Table 3A
How it was run: as §5

J82 cells = assay: In vitro cell viability, urothelial cancer J82; format: cell-based, human; conditions: 5 μM, 72 h; relative to MIA602 = 1; Table 3A
Procedure: as §1, §2, §3, §4

SMILES	Relative inhibitory potency, Pancreatic Panc-1 (PANC-1 cells)	In vitro relative inhibitory potency in comparison to MIA-602, HCC827 (HCC827 cells; Table 3B)	Relative inhibitory potency, Lung HCC827 (HCC827 cells)	pIC50 [1]	In vitro relative inhibitory potency in comparison to MIA-602, NCI-N87 (NCI-N87 cells; Table 3B)	Relative inhibitory potency, Stomach N87 (NCI-N87 cells)	In vitro relative inhibitory potency in comparison to MIA-602, CFPAC-1 (CFPAC-1 cells; Table 3B)	Relative inhibitory potency, Pancreatic CFPAC-1 (CFPAC-1 cells)	Relative inhibitory potency, Urothelial J82 (J82 cells)	pIC50 ([1]; human anterior pituitary membranes, mean of two to three determinations, read-out: IC50)
CCCC[C@H](NC(=O)[C@@H](NC(=O)[C@H](CC(=O)O)NC(=O)[C@H](CCC(N)=O)NC(=O)[C@H](CC(C)C)NC(=O)[C@H](CC(C)C)NC(=O)[C@H](CCCN)NC(=O)[C@H](Cc1c[nH]cn1)NC(=O)[C@H](C)NC(=O)[C@H](CO)NC(=O)[C@H](CC(C)C)NC(=O)[C@H](CCC(N)=O)NC(=O)[C@H](CC)NC(=O)[C@H](CC(C)C)NC(=O)[C@@H](NC(=O)[C@H](CCCN)NC(=O)[C@H](Cc1c[nH]cn1)NC(=O)[C@H](Cc1ccc(OC)cc1)NC(=O)[C@H](CCCCNC(=N)N)NC(=O)[C@H](C)NC(=O)[C@@H](NC(=O)[C@H](Cc1c(F)c(F)c(F)c(F)c1F)NC(=O)[C@@H](NC(=O)[C@H](C)NC(=O)[C@H](CC(=O)O)NC(=O)[C@@H](CCCNC(=N)N)NC(=O)[C@H](Cc1ccc(O)cc1)NC(=O)CCCCCCCCCCCNC(=O)Cc1ccccc1)[C@@H](C)CC)[C@@H](C)O)C(C)C)[C@@H](C)CC)C(=O)N[C@H](CCCNC(=N)N)C(=O)N[C@@H](CCCCNC(=N)N)C(N)=O [MIA-602, PhAC-Ada, Tyr D-Arg, Asp, Ala, Ile, 5FPhe, Thr, Ala, Har, Tyr(Me), His, Orn, Val, Leu, Abu, Gin, Leu, Ser, Ala, His, Orn, Leu, Leu, Gin, Asp, Ile, Nle, D-Arg, Har NH2, reference compound] ({PhAc-12Ado}-Y[dR]DAI[Phe(F5)]TA[hArg]Y(Me)H[Orn]VL[Abu]QLSAH[Orn]LLQDI[Nle][dR][hArg]-NH2)	1	1	1	9.57	1	1	1	1	1	–
CCCC[C@H](NC(=O)[C@@H](NC(=O)[C@H](CC(=O)O)NC(=O)[C@H](CCC(N)=O)NC(=O)[C@H](CC(C)C)NC(=O)[C@H](CC(C)C)NC(=O)[C@H](CCCCN)NC(=O)[C@H](CCCNC(=N)N)NC(=O)[C@H](C)NC(=O)[C@H](CO)NC(=O)[C@H](CC(C)C)NC(=O)[C@H](CCC(N)=O)NC(=O)[C@H](CC)NC(=O)[C@H](CC(C)C)NC(=O)[C@@H](NC(=O)[C@H](CCCCN)NC(=O)[C@H](CCCNC(=N)N)NC(=O)[C@H](Cc1ccc(OC)cc1)NC(=O)[C@H](CCCCNC(=N)N)NC(=O)[C@H](C)NC(=O)[C@@H](NC(=O)[C@H](Cc1c(F)c(F)c(F)c(F)c1F)NC(=O)[C@@H](NC(=O)[C@H](C)NC(=O)[C@H](CC(=O)O)NC(=O)[C@@H](CCCNC(=N)N)NC(=O)[C@H](Cc1ccc(O)cc1)NC(=O)CCCCCCCCCCCNC(=O)Cc1c(F)c(F)c(F)c(F)c1F)[C@@H](C)CC)[C@@H](C)O)C(C)C)[C@@H](C)CC)C(=O)N[C@H](CCCNC(=N)N)C(=O)N[C@@H](CCCCNC(=N)N)C(=O)NC [AVR-235] ({Phenylacetyl(2,3,4,5,6-F5)-12Ado}-Y[dR]DAI[Phe(F5)]TA[hArg]Y(Me)RKVL[Abu]QLSARKLLQDI[Nle][dR][hArg]-NHMe)	1.139	–	1.506	–	–	2.911	–	1.399	1.518	9.31
